Assay [1] has as its system field violet. The assay is described as follows: Test E field violet. The assay is classed as in vivo, Viola arvensis. The conditions noted are these: Preemergence.
Assay [2] concerns ivyleaf speedwell. The assay is described as follows: Test E postemergence ivyleaf speedwell. The assay is classed as in vivo, Veronica hederaefolia. As for the experimental part:
(§1) Compounds evaluated in this test were formulated in a non-phytotoxic solvent mixture which included a surfactant and applied to plants that were in the 1- to 4-leaf stage (postemergence application). A mixture of sandy loam soil and greenhouse potting mix in a 60:40 ratio was used for the postemergence test.
(§2) Plantings of these crops and weed species were adjusted to produce plants of appropriate size for the postemergence test. All plant species were grown using normal greenhouse practices. Crop and weed species include annual bluegrass (Poa annua), blackgrass (Alopecurus myosuroides), black nightshade (Solanum nigra), chickweed (Stellaria media), common poppy (Papaver rhoeas), deadnettle (Lamium amplexicaule), downy brome (Bromus tectorum), field violet (Viola arvensis), galium (Galium aparine), green foxtail (Setaria viridis), Italian ryegrass (Lolium multiflorum), jointed goatgrass (Aegilops cylindrica), kochia (Kochia scoparia), lambsquarters (Chenopodium album), littleseed canarygrass (Phalaris minor), rape (Brassica napus), redroot pigweed (Amaranthus retroflexus), Russian thistle (Salsola kali), scentless chamomile (Matricaria inodora), spring barley (Hordeum vulgare), sugar beet (Beta vulgaris), sunflower (Helianthus annuus), ivyleaf speedwell (Veronica hederaefolia), spring wheat (Triticum aestivum), winter wheat (Triticum aestivum), wild buckwheat (Polygonum convolvulus), wild mustard (Sinapis arvensis), wild oat (Avena fatua), windgrass (Apera spica-venti) and winter barley (Hordeum vulgare).
(§3) Treated plants and untreated controls were maintained in a greenhouse for approximately 21 to 28 days, after which all treated plants were compared to untreated controls and visually evaluated. […] A dash response (-) means no test result.

In assay [3] the test system is jointed goatgrass. The assay is described as follows: Test E jointed goatgrass. In kind it is in vivo, Aegilops cylindrica. Conditions: Preemergence.
Assay [4] concerns rape. The assay is described as follows: Test E rape. In kind it is in vivo, Brassica napus. The conditions noted are these: Preemergence.
Assay [5] concerns sugar beet. The assay is described as follows: Test E sugar beet. In kind it is in vivo, Beta vulgaris. The conditions noted are these: Postemergence. Put shortly:
(§4)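 Visual evaluation versus untreated controls after about 21 to 28 days in the greenhouse. Compound was in a surfactant-containing non-phytotoxic solvent; postemergence plants were treated at the 1- to 4-leaf stage, grown in a 60:40 sandy loam and potting mix blend.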

In assay [6] the test system is jointed goatgrass. The assay is described as follows: Test E jointed goatgrass. The conditions noted are these: Postemergence. In kind it is in vivo, Aegilops cylindrica. Put shortly: as §4
Assay [7] deals with sunflower. The assay is described as follows: Test E sunflower. The assay is classed as in vivo, Helianthus annuus. The conditions noted are these: Postemergence. As for the experimental part: as §2, with “Plantings of these crops and weed species were adjusted to produce plants of appropriate size for the postemergence test.” left out
as §3

Assay [8] concerns kochia. The assay is described as follows: Test E kochia. The assay is classed as in vivo, Kochia scoparia. The conditions noted are these: Postemergence. As for the experimental part:
as §1, §2, §3

Assay [9] relates to corn. The assay is described as follows: Test C postemergence corn. In kind it is in vivo, Zea mays. The conditions noted are these: 0 to 100 scale, 0 no effect, 100 complete control. As for the experimental part: Compounds evaluated in this test were formulated in a non-phytotoxic solvent mixture which included a surfactant and applied to plants that were grown for various periods of time before treatment (postemergence application). A mixture of sandy loam soil and greenhouse potting mix in a 60:40 ratio was used for the postemergence test.
Plantings of these crops and weed species were adjusted to produce plants of appropriate size for the postemergence test. All plant species were grown using normal greenhouse practices. Crop and weed species include arrowleaf sida (Sida rhombifolia), barnyardgrass (Echinochloa crus-galli), cocklebur (Xanthium strumarium), common ragweed (Ambrosia elatior), corn (Zea mays), cotton (Gossypium hirsutum), eastern black nightshade (Solanum ptycanthum), fall panicum (Panicum dichotomiflorum), field bindweed (Convolvulus arvensis), giant foxtail (Setaria faberii), hairy beggarticks (Bidens pilosa), ivyleaf morningglory (Ipomoea hederacea), johnsongrass (Sorghum halepense), ladysthumb smartweed (Polygonum persicaria), lambsquarters (Chenopodium album), large crabgrass (Digitaria sanguinalis), purple nutsedge (Cyperus rotundus), redroot pigweed (Amaranthus retroflexus), soybean (Glycine max), surinam grass (Brachiaria decumbens), velvetleaf (Abutilon theophrasti) and wild poinsettia (Euphorbia heterophylla).
Treated plants and untreated controls were maintained in a greenhouse for approximately 14, to 21 days, after which all treated plants were compared to untreated controls and visually evaluated. Plant response ratings, summarized in Table C, were based upon a 0 to 100 scale where 0 was no effect and 100 was complete control. A dash response (−) means no test result.

Assay [10] deals with sourgrass. The assay is described as follows: Test D sourgrass. In kind it is in vivo, Trichachne insularis. Conditions: Preemergence, 0 to 100 scale, 0 no injury, 100 complete control. The source says:
Seeds, tubers, or plant parts of Alexandergrass (Brachiaria plantaginea), bermuda-grass (Cynodon dactylon), common pursiane (Portulaca oleracea), common ragweed (Ambrosia elatior), common groundsel (Senecio vulgaris), dallisgrass (Paspalum dilatatum), goosegrass (Eleusine indica), guineagrass (Panicum maximum), itchgrass (Rottboellia exaltata), Johnson grass (Sorghum halepense), large crabgrass (Digitaria sanguinalis), pitted morningglory (Ipomoea lacunosa), purple nutsedge (Cyperus rotundus), sandbur (Cenchrus echinatus), sourgrass (Trichachne insularis), Spanishneedles (Bidens bipinnata), surinam grass (Brachiaria decumbens) and tall mallow (Malva sylvestris) were planted into greenhouse pots of flats containing greenhouse planting medium. Plant species were grown in separate pots or individual compartments. Preemergence applications were made within one day of planting the seed or plant part.
Test chemicals were formulated in a non-phytotoxic solvent mixture which included a surfactant and applied preemergence to the surface of the pot containing seeds in a sandy loam soil. Untreated control pots and treated pots were placed in the greenhouse for growth and visually evaluated for injury 14 to 21 days after herbicide application. Plant response ratings, summarized in Table C, are based on a 0 to 100 scale where 0 is no injury and 100 is complete control. […]

[11] abbreviates: Rate 125 g/ha, 0 to 100 scale (0 no effect, 100 complete control).
The mark [12] stands for this setting: Rate 500 g/ha, 0 to 100 scale where 0 is no effect and 100 is complete control.
Setting [13] is: Rate 250 g/ha, 0 to 100 scale (0 no effect, 100 complete control).
The mark [14] stands for this setting: Rate 500 g/ha, 0 to 100 scale, 0 no effect, 100 complete control.
Setting [15] is: Rate 250 g/ha, 0 to 100 scale where 0 is no effect and 100 is complete control.

4 compounds from patent US6737383B1, “Herbicidal oxadiazolidines” (priority 1999, dated 2004) can be followed below.

As for `CC(C)N(C(=O)n1oc(=O)n(C(C)C)c1=O)c1ccc(Cl)cc1` [Compound 114], the “Plant response rating, Field violet” value in assay [1] (setting [11]) came out at 0; in [1] (Rate 250 g/ha, 0 to 100 scale), 0; in assay [1] (setting [12]) it was 10. Besides, the “Plant response rating, Veronica hedera” value stood at 10 in assay [2] (Rate 125 g/ha, 0 to 100 scale); 50 in assay [2] (setting [13]); 70 in [2] (setting [14]). The “Plant response rating, Jointed goatgra” value in [3] (setting [11]) came out at 20; in assay [3] (Rate 250 g/ha, 0 to 100 scale), 65; in assay [3] (setting [12]), 50; in assay [6] (Rate 125 g/ha, 0 to 100 scale) it was 15; in assay [6] (setting [13]), 5; in assay [6] (setting [14]) it was 50. The “Plant response rating, Rape” value worked out at 0 in assay [4] (setting [11]); 20 in assay [4] (Rate 250 g/ha, 0 to 100 scale); 50 in assay [4] (setting [12]). For the same compound, the “Plant response rating, Sugar beet” value was 50 in assay [5] (Rate 125 g/ha, 0 to 100 scale); 55 in assay [5] (setting [13]); 50 in [5] (setting [14]). Besides, the “Plant response rating, Sunflower” value in assay [7] (Rate 125 g/ha, 0 to 100 scale) stood at 10; in assay [7] (setting [13]), 10; in assay [7] (setting [14]) it was 15. Besides, the “Plant response rating, Kochia” value is reported as 20 in assay [8] (Rate 125 g/ha, 0 to 100 scale); 30 in assay [8] (setting [13]); 30 in [8] (setting [14]).

In the case of `CC(C)N(C(=O)n1oc(=O)n(C(C)C)c1=O)c1ccc(F)cc1` [Compound 131], the entries for the “Plant response rating, Field violet” value in [1] (setting [11]) and in assay [1] (setting [12]) were 20 and 40, respectively. In addition, in assay [1] (Rate 250 g/ha), the “Field violet plant response rating (0 to 100 scale)” value worked out at 20. The “Plant response rating, Veronica hedera” value was determined as 0 in assay [2] (Rate 125 g/ha, 0 to 100 scale) and 20 in [2] (setting [14]). Further, the “Veronica hedera plant response rating” value in assay [2] (setting [15]) came out at 0. The “Plant response rating, Jointed goatgra” value in assay [3] (setting [11]) is recorded as 50; in [3] (setting [12]), 95; in assay [6] (Rate 62 g/ha, 0 to 100 scale) it was 30; in assay [6] (Rate 125 g/ha, 0 to 100 scale), 0; in [6] (setting [14]) it was 60. Besides, the “Jointed goatgra plant response rating (0 to 100 scale)” value in [3] (Rate 250 g/ha) is recorded as 70. Besides, the “Plant response rating, Rape” value in assay [4] (setting [11]) is reported as 70; in [4] (setting [12]) it was 90. For the same compound, the “Rape plant response rating (0 to 100 scale)” value in assay [4] (Rate 250 g/ha) was 75. Further, the “Plant response rating, Sugar beet” value stood at 0 in assay [5] (Rate 62 g/ha, 0 to 100 scale); 0 in assay [5] (Rate 125 g/ha, 0 to 100 scale); 0 in assay [5] (setting [14]). Further, the “Sugar beet plant response rating” value in assay [5] (setting [15]) was 0. For the same compound, the “Plant response rating, Corn” value came out at 0 in [9] (Rate 140 g/ha), 0 in assay [9] (Rate 280 g/ha), 5 in assay [9] (Rate 560 g/ha) and 40 in [9] (Rate 1120 g/ha). The “Plant response rating, Sourgrass” value in [10] (Rate 16 g/ha) turned out to be 90. Further, the “Jointed goatgra plant response rating” value in assay [6] (setting [15]) is recorded as 0. For the same compound, the “Plant response rating, Sunflower” value is on record as 10 in assay [7] (Rate 62 g/ha, 0 to 100 scale); 0 in [7] (Rate 125 g/ha, 0 to 100 scale); 0 in [7] (setting [14]). For the same compound, in assay [7] (setting [15]), the “Sunflower plant response rating” value is recorded as 0. Moreover, the “Plant response rating, Kochia” value is on record as 45 in assay [8] (Rate 62 g/ha, 0 to 100 scale); 0 in [8] (Rate 125 g/ha, 0 to 100 scale); 0 in assay [8] (setting [14]). The “Kochia plant response rating” value in assay [8] (setting [15]) came out at 0.

As for `Cc1cccc(C)c1-n1c(=O)on(C(=O)N(c2ccc(F)cc2)C(C)C)c1=O` [Compound 18], in assay [10] (Rate 64 g/ha), the “Plant response rating, Sourgrass” value is listed as 100.

With `CCn1c(=O)on(C(=O)N(c2ccccc2)C(C)C)c1=O` [Compound 117], the “Plant response rating, Corn” value in assay [9] (Rate 140 g/ha) turned out to be 0; in assay [9] (Rate 280 g/ha), 0; in assay [9] (Rate 560 g/ha), 40; in [9] (Rate 1120 g/ha), 85.
